{"source": "patent US20190369111A1", "about": "“MOLECULAR KINETICS EVALUATION METHOD AND SCREENING METHOD” (Tokyo University of Science Foundation, priority 2016, published 2019)", "biological_target": "T1, wild-type K-Ras protein (Homo sapiens, UniProt P01116)", "T1 construct": "expressed in transfected cells; host or cells: HeLa cells, transient transfection", "T1 sequence (P01116 1-188 isoform P01116-2)": "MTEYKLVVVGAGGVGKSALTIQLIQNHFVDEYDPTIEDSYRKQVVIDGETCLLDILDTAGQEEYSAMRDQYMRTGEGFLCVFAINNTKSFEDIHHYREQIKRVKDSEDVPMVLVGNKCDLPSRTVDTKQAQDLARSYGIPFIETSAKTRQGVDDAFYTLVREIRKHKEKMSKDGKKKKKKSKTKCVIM", "assay": "Degradation (knockdown) of forcibly expressed wild-type K-Ras protein in HeLa cells, FACS analysis", "type": "cell-based", "method": "A plasmid expressing a wild-type K-Ras protein (K-Ras-WT) was prepared using a plasmid (pMIR-DsRed-IRES-ecDHFR-HA-GFP) expressing an ecDHFR protein by RF cloning. The full-length cDNA clone (Accession No. AK292510) of a human K-ras gene was purchased from Independent Administrative Institution, the National Institute of Technology and Evaluation. PCR amplification was performed using KOD-Plus-Neo (TOYOBO CO., LTD) as a PCR enzyme.\nThe plasmid was introduced into HeLa cells to transiently overexpress a wild-type K-Ras protein (specifically, a fusion protein of a wild-type K-Ras protein and GFP via a HA tag) or a DsRed protein for comparison in the cells.\nScreenFect™A (Wako Pure Chemical Industries, Ltd.) as a transfection reagent was used to introduce the plasmid into HeLa cells by a routine procedure. The HeLa cells into which the plasmid had been introduced were seeded in a 24-well plate at a cell density of 4×10^4 cells/well, and then cultured under conditions of 37° C. and 5 vol % CO2 for 40 hours. […]\nA BD FACSCanto™ II (BD Biosciences) was used for flow cytometry, and the expression levels of GFP and DsRed protein in the cells were quantified. […] The GFP/DsRed ratio per cell was computed using an analysis software FlowJo™ (TOMY Digital Biology Co., Ltd.), and degradation (knockdown) of the wild-type K-Ras protein by TUS-007 was determined from a shift in a graph."}
{"smiles": "CC[C@@H](C)[C@H](NC(=O)CCCCCCNC(=O)[C@H](CC(C)C)NC(=O)CNC(=O)c1cc(Cl)ccc1Cl)C(=O)Nc1ccc2[nH]c(Cc3c[nH]c4ccccc34)nc2c1", "note": "[TUS-007]", "values": [{"measurement": "degradation (knockdown) of wild-type K-Ras protein (shift of GFP/DsRed ratio graph)", "setting": "24 hours after addition, vs control (DMSO)", "result": "degradation of the wild-type K-Ras protein was induced"}, {"measurement": "degradation of wild-type K-Ras protein when MLN2238 is added together", "setting": "both TUS-007 and MLN2238 added, compared with TUS-007 alone", "result": "degradation of the wild-type K-Ras protein was inhibited"}]}
